Test results published in patent US20260034153A1, “Cerebral Blood Flow Augmenter, Brain Activity Promoter, and Vigilance Improver” (Mitsui DM Sugar Co., Ltd., priority 2022, published 2026).

What was measured:
[1] = fraction of the hydrolysis rate of sucrose; cited from earlier work
[2] = test system: healthy men and women; assay: Digit vigilance task (DVT) response time after intake of test food, crossover test; format: in vivo, human; conditions: 10.0 g in 100 mL water taken orally before 2nd DVT; 5 DVTs, one per hour; 64 subjects; FIG. 1
Experimental: As the subjects, 64 healthy men and women of 20 to 60 years old were employed. The effects of intake of isomaltulose on cerebral blood flow and brain activity were evaluated based on measurement of the response time to a cognitive task (Digit vigilance task (DVT)) and change of the cerebral blood flow in accordance with the following test. Test methods are more specifically shown below. In the test, each block including the steps shown in Table 1 was performed in one hour, and the 1st block to the 5th block were continuously performed on the same day. […] Before the start of the 2nd DVT, an aqueous solution prepared by dissolving 10.0 g of isomaltulose in 100 mL of water was given as a test food. After the completion of DVT and before the next DVT, the Uchida Kraepelin test was performed. The Uchida Kraepelin test is a test of adjacent single-digit addition. In this Example, the test was performed in order to apply a load such as fatigue to the subject in order to control the break time. DVT is a task mainly used for measuring the vigilance (Non Patent Literature 1 (Joel S. Warm et al., Vigilance requires hard mental work and is stressful, Human Factors, Vol. 50 (3), pp. 433-41, 2008)). […] The time from display of the number or character to the subject's response is measured. […]

[3] = test system: healthy men and women; assay: Subjective questionnaire survey (VAS method) after the task; format: in vivo, human; conditions: questionnaire at 3rd to 5th block; compared to glucose control group
Experimental: As the subjects, 64 healthy men and women of 20 to 60 years old were employed. The effects of intake of isomaltulose on cerebral blood flow and brain activity were evaluated based on measurement of the response time to a cognitive task (Digit vigilance task (DVT)) and change of the cerebral blood flow in accordance with the following test. Test methods are more specifically shown below. In the test, each block including the steps shown in Table 1 was performed in one hour, and the 1st block to the 5th block were continuously performed on the same day. […] Before the start of the 2nd DVT, an aqueous solution prepared by dissolving 10.0 g of isomaltulose in 100 mL of water was given as a test food. After the completion of DVT and before the next DVT, the Uchida Kraepelin test was performed. The Uchida Kraepelin test is a test of adjacent single-digit addition. In this Example, the test was performed in order to apply a load such as fatigue to the subject in order to control the break time. First, “Last night, did you sleep better than usual?” was asked. After DVT or Uchida Kraepelin test, the survey for asking subjectivity of the subjects was conducted as to “How are you feeling right now?”, “Are you feeling tired right now?”, “Are you feeling irritated right now?”, “Are you feeling sleepy right now?”, and “Did you work diligently on the task until the end?”. […]

[4] = test system: healthy men and women; assay: Change in cerebral blood flow in the dorsal lateral prefrontal area during DVT, measured by fNIRS (HOT-2000); format: in vivo, human; conditions: throughout 5 DVTs, compared to glucose intake group, FIGS. 2 and 3
Experimental: The subjects mentioned above were instructed to take a test diet containing glucose instead of isomaltulose on another day and the same test was performed (crossover test). They constituted a control group.
Using a brain activity measuring apparatus (HOT-2000, manufactured by NeU Corporation) based on fNIRS (near-Infrared spectroscopy), a change in cerebral blood flow in the dorsal lateral prefrontal area was measured during DVT. According to this apparatus, a change in hemoglobin concentration in blood can be detected by irradiation with near-infrared light, with the result that a change in cerebral blood flow in an active area of the brain can be measured.

For `O=C(CO)[C@@H](O)[C@H](O)[C@H](O)CO[C@H]1O[C@H](CO)[C@@H](O)[C@H](O)[C@H]1O` [isomaltulose, 6-O-α-D-glucopyranosyl-D-fructose], the “hydrolysis rate relative to sucrose” value [1] is listed as “⅕”, the “response time in DVT (change of average response time relative to 1st DVT)” value [2] is listed as “less likely to increase” and the “answer to question "have you dealt with the task diligently to the end?"” value [3] is listed as “dealt with the task diligently”. The “change in cerebral blood flow during DVT (average 0 to 120 seconds)” value [4] was “significantly large”.
